“And” between values parts separate entries of the source, which are not always exact repeats. Equal entries are not always repeated.
Conditions: 323.15 K, Liquid, Vibrating tube method

CCCCCCCC(=O)OCC(COC(=O)CCCCCCC)(COC(=O)CCCCCCC)COC(=O)CCCCCCC [pentaerythritol tetraoctanoate]
Conditions	mass density
1092.7 kPa	941.3 kg/m3
1117.7 kPa	941.4 kg/m3
1150.2 kPa	941.4 kg/m3
1178 kPa	941.4 kg/m3
1206.8 kPa	941.4 kg/m3
1237.7 kPa	941.5 kg/m3
1275.6 kPa	941.4 kg/m3
1308.8 kPa	941.4 kg/m3
1344.2 kPa	941.6 kg/m3
1380.8 kPa	941.4 kg/m3
1426.8 kPa	941.7 kg/m3
1467.5 kPa	941.6 kg/m3
1510.3 kPa	941.7 kg/m3
1707.2 kPa	941.7 kg/m3
1720.8 kPa	941.6 kg/m3
1734.6 kPa	941.9 kg/m3
1749 kPa	941.8 kg/m3
1766.8 kPa	941.8 kg/m3
1780.8 kPa	941.9 kg/m3
1795.7 kPa	941.8 kg/m3
1810.5 kPa	941.9 kg/m3
1828.9 kPa	941.8 kg/m3
1844.2 kPa	941.8 kg/m3
1859.6 kPa	942 kg/m3
1875.8 kPa	941.8 kg/m3
1895.2 kPa	942 kg/m3
1915.1 kPa	941.9 kg/m3
1932.3 kPa	942 kg/m3
1947.8 kPa	942 kg/m3
1957.8 kPa	942 kg/m3
1963.7 kPa	942 kg/m3
1968.9 kPa	942 kg/m3
1974 kPa	942 kg/m3
1987.2 kPa	942.1 kg/m3
2016.7 kPa	941.9 kg/m3
2142.1 kPa	942 kg/m3
2259.4 kPa	942.1 kg/m3
2339.7 kPa	942.1 kg/m3
2352.9 kPa	942.3 kg/m3
2366.5 kPa	942.3 kg/m3
2382.6 kPa	942.2 kg/m3
2409.7 kPa	942.5 kg/m3
2426.8 kPa	942.3 kg/m3
2441.1 kPa	942.3 kg/m3
2454.6 kPa	942.4 kg/m3
2468.6 kPa	942.2 kg/m3
2486 kPa	942.4 kg/m3
2500.4 kPa	942.4 kg/m3
2515.6 kPa	942.2 kg/m3
2533.2 kPa	942.4 kg/m3
2546 kPa	942.5 kg/m3
2554.1 kPa	942.4 kg/m3
2597 kPa	942.4 kg/m3
2605 kPa	942.4 kg/m3
2612.9 kPa	942.4 kg/m3
2622.5 kPa	942.4 kg/m3
2630.8 kPa	942.4 kg/m3
2639.1 kPa	942.4 kg/m3
2648.3 kPa	942.4 kg/m3
2656.5 kPa	942.4 kg/m3
2664.8 kPa	942.5 kg/m3
2674.9 kPa	942.5 kg/m3
2683.4 kPa	942.5 kg/m3
2692.2 kPa	942.4 kg/m3
2701.1 kPa	942.4 kg/m3
2709.7 kPa	942.4 kg/m3
2720 kPa	942.5 kg/m3
2728.5 kPa	942.4 kg/m3
2737.3 kPa	942.5 kg/m3
2746.3 kPa	942.5 kg/m3
2756.7 kPa	942.6 kg/m3
2765.4 kPa	942.6 kg/m3
2775.6 kPa	942.5 kg/m3
2784.8 kPa	942.5 kg/m3
2793.7 kPa	942.6 kg/m3
2803.2 kPa	942.6 kg/m3
2814.5 kPa	942.5 kg/m3
2821.9 kPa	942.6 kg/m3
2832.7 kPa	942.6 kg/m3
2841.7 kPa	942.5 kg/m3
2852.6 kPa	942.6 kg/m3
2862.2 kPa	942.5 kg/m3
2871.5 kPa	942.6 kg/m3
2880.9 kPa	942.6 kg/m3
2892.2 kPa	942.6 kg/m3
2901.4 kPa	942.6 kg/m3
2911.2 kPa	942.6 kg/m3
2922.7 kPa	942.6 kg/m3
2932.2 kPa	942.6 kg/m3
2944 kPa	942.6 kg/m3
2953.7 kPa	942.6 kg/m3
2963.9 kPa	942.6 kg/m3
2974 kPa	942.7 kg/m3
2983.7 kPa	942.7 kg/m3
2995.7 kPa	942.7 kg/m3
3005.6 kPa	942.6 kg/m3
3016 kPa	942.6 kg/m3
3027.9 kPa	942.7 kg/m3
3038.3 kPa	942.7 kg/m3
3048.7 kPa	942.7 kg/m3
3059.1 kPa	942.7 kg/m3
3071.6 kPa	942.8 kg/m3
3082 kPa	942.7 kg/m3
3092.6 kPa	942.7 kg/m3
3105.1 kPa	942.7 kg/m3
3115.6 kPa	942.8 kg/m3
3128.6 kPa	942.7 kg/m3
3139.4 kPa	942.6 kg/m3
3150.3 kPa	942.7 kg/m3
3159 kPa	942.7 kg/m3
3173.9 kPa	942.8 kg/m3
3185.2 kPa	942.8 kg/m3
3196.4 kPa	942.8 kg/m3
3207.5 kPa	942.8 kg/m3
3220.5 kPa	942.8 kg/m3
3232.3 kPa	942.8 kg/m3
3243.6 kPa	942.8 kg/m3
3257.1 kPa	942.9 kg/m3
3268.7 kPa	942.8 kg/m3
3280 kPa	942.8 kg/m3
3291.9 kPa	942.9 kg/m3
3306.1 kPa	942.9 kg/m3
3317.8 kPa	942.8 kg/m3
3329.5 kPa	942.9 kg/m3
3343.6 kPa	942.8 kg/m3
3355.4 kPa	942.9 kg/m3
3367.5 kPa	943 kg/m3
3380.2 kPa	943 kg/m3
3392.6 kPa	943.1 kg/m3
3407.2 kPa	943 kg/m3
3419.3 kPa	942.9 kg/m3
3431.8 kPa	943.1 kg/m3
3446.7 kPa	943 kg/m3
3459.2 kPa	942.9 kg/m3
3469.6 kPa	942.9 kg/m3
3479.3 kPa	943 kg/m3
3494.5 kPa	942.9 kg/m3
3507.4 kPa	943 kg/m3
3540.6 kPa	943 kg/m3
3553.8 kPa	942.9 kg/m3
3567 kPa	943.1 kg/m3
3580 kPa	943.1 kg/m3
3710.3 kPa	943.1 kg/m3
3724.8 kPa	943.2 kg/m3
3743.3 kPa	943 kg/m3
3756.8 kPa	943.3 kg/m3
3771.5 kPa	943.2 kg/m3
3786.1 kPa	943.3 kg/m3
3800.8 kPa	943.3 kg/m3
3818.1 kPa	943.3 kg/m3
3832.3 kPa	943.3 kg/m3
3846.9 kPa	943.3 kg/m3
3894.9 kPa	943.3 kg/m3
4078 kPa	943.4 kg/m3
4095.3 kPa	943.5 kg/m3
4116.3 kPa	943.5 kg/m3
4133.4 kPa	943.5 kg/m3
4151.5 kPa	943.4 kg/m3
4169.5 kPa	943.5 kg/m3
4190.6 kPa	943.5 kg/m3
4208.3 kPa	943.5 kg/m3
4239.4 kPa	943.7 kg/m3
4240.5 kPa	943.6 kg/m3
4244.3 kPa	943.6 kg/m3
4247.1 kPa	943.6 kg/m3
4247.4 kPa	943.5 kg/m3
4247.6 kPa	943.5 kg/m3
4248.6 kPa	943.5 kg/m3
4249.3 kPa	943.5 kg/m3 and 943.6 kg/m3
4250.7 kPa	943.7 kg/m3
4258.1 kPa	943.6 kg/m3
4267.5 kPa	943.7 kg/m3
4277.9 kPa	943.5 kg/m3
4287.4 kPa	943.5 kg/m3
4298 kPa	943.6 kg/m3
4315.8 kPa	943.6 kg/m3
4334.7 kPa	943.5 kg/m3
4353.7 kPa	943.6 kg/m3
4376.6 kPa	943.5 kg/m3
4396.7 kPa	943.6 kg/m3
4416.4 kPa	943.8 kg/m3
4436.5 kPa	943.7 kg/m3
4522.7 kPa	943.7 kg/m3
4548.7 kPa	943.7 kg/m3
4571 kPa	943.8 kg/m3
4604.4 kPa	943.8 kg/m3
4618.8 kPa	943.7 kg/m3
4647.7 kPa	943.8 kg/m3
4665.2 kPa	943.8 kg/m3
4679.7 kPa	943.8 kg/m3
4709.7 kPa	943.8 kg/m3
4727.3 kPa	943.9 kg/m3
4891.1 kPa	943.9 kg/m3
4907.3 kPa	944 kg/m3
4923.3 kPa	944 kg/m3
4942.8 kPa	944.1 kg/m3
4959.8 kPa	943.9 kg/m3
4976.6 kPa	944 kg/m3
4996.1 kPa	944 kg/m3
5013.6 kPa	944 kg/m3
5030.7 kPa	944 kg/m3
5047.7 kPa	944.1 kg/m3
5068.6 kPa	944.1 kg/m3
5086.9 kPa	944.1 kg/m3
5104.6 kPa	944.2 kg/m3
5218.8 kPa	944.1 kg/m3
5237.3 kPa	944.2 kg/m3
5255.9 kPa	944.1 kg/m3
5277.4 kPa	944 kg/m3
5296.3 kPa	944.3 kg/m3
5316.3 kPa	944.2 kg/m3
5355 kPa	944.3 kg/m3
5378.7 kPa	944.3 kg/m3
5681.4 kPa	944.5 kg/m3
5729.8 kPa	944.6 kg/m3
5752.1 kPa	944.5 kg/m3
5847.4 kPa	944.5 kg/m3
5898.9 kPa	944.7 kg/m3
5922.8 kPa	944.6 kg/m3
5946.5 kPa	944.7 kg/m3
5970.5 kPa	944.6 kg/m3
5999.4 kPa	944.7 kg/m3
6024.1 kPa	944.7 kg/m3
6049 kPa	944.6 kg/m3
6104.5 kPa	944.9 kg/m3
6129.2 kPa	944.8 kg/m3
6154.4 kPa	944.8 kg/m3
6185.7 kPa	944.9 kg/m3
6211.6 kPa	944.7 kg/m3
6413.9 kPa	945 kg/m3
6442.7 kPa	945.1 kg/m3
6473 kPa	945 kg/m3
6509.3 kPa	944.9 kg/m3
6534.3 kPa	945 kg/m3
6561.1 kPa	945 kg/m3
6584.4 kPa	945 kg/m3
6606.7 kPa	945 kg/m3
6623 kPa	945.2 kg/m3
6640.9 kPa	945.1 kg/m3
6655.8 kPa	945.2 kg/m3
6670.8 kPa	945.1 kg/m3
6686 kPa	945.1 kg/m3
6704.2 kPa	945 kg/m3
6719.4 kPa	945.2 kg/m3
6735.1 kPa	945.2 kg/m3
6749.8 kPa	945.1 kg/m3
6768.8 kPa	945.2 kg/m3
6784.3 kPa	945.2 kg/m3
6800.4 kPa	945.2 kg/m3
6817 kPa	945.2 kg/m3
6835.8 kPa	945.3 kg/m3
6851.9 kPa	945.3 kg/m3
6867.4 kPa	945.1 kg/m3
6883.1 kPa	945.3 kg/m3
6902.5 kPa	945.3 kg/m3
6918.5 kPa	945.3 kg/m3
6935.1 kPa	945.2 kg/m3
6954.5 kPa	945.3 kg/m3
6971.2 kPa	945.4 kg/m3
6987.8 kPa	945.3 kg/m3
7004.7 kPa	945.4 kg/m3
7025.5 kPa	945.3 kg/m3
7043.2 kPa	945.5 kg/m3
7059.8 kPa	945.4 kg/m3
7076.5 kPa	945.4 kg/m3
7096.9 kPa	945.4 kg/m3
7113.8 kPa	945.4 kg/m3
7131.3 kPa	945.5 kg/m3
7148.4 kPa	945.5 kg/m3
7169.6 kPa	945.5 kg/m3
7187.1 kPa	945.5 kg/m3
7204 kPa	945.6 kg/m3
7225.1 kPa	945.5 kg/m3
7243.2 kPa	945.4 kg/m3
7262.9 kPa	945.5 kg/m3
7281.3 kPa	945.5 kg/m3
7299.6 kPa	945.5 kg/m3
7320.9 kPa	945.6 kg/m3
7338.5 kPa	945.7 kg/m3
7357.3 kPa	945.6 kg/m3
7379.6 kPa	945.5 kg/m3
7397.7 kPa	945.7 kg/m3
7416.4 kPa	945.6 kg/m3
7435.3 kPa	945.6 kg/m3
7457.8 kPa	945.7 kg/m3
7476.9 kPa	945.7 kg/m3
7496.1 kPa	945.6 kg/m3
7515.6 kPa	945.7 kg/m3
7538.6 kPa	945.7 kg/m3
7558.1 kPa	945.7 kg/m3
7577.6 kPa	945.6 kg/m3
7601.3 kPa	945.7 kg/m3
7621.1 kPa	945.8 kg/m3
7640.6 kPa	945.7 kg/m3
7660.5 kPa	945.8 kg/m3

Source: the NIST ThermoML archive (doi:10.1021/je060271a)
